Type in all cases: in vivo
Assay [1] concerns Penicillium italicum. Briefly: Treatment of oranges inoculated with Penicillium italicum, natamycin/ferbam (Example 7). Conditions: 20° C., 600 ppm ferbam. On the procedure:
(§1) Ten fresh, organic oranges were used per treatment. Each orange was soaked in a 180 ppm hypochlorite solution for 10 minutes, then rinsed thoroughly with fresh tap water and dried. The peel of each disinfected orange was wounded once using a cork borer according to the method described by de Lapeyre de Bellaire and Dubois (1987). Subsequently, each wound was inoculated with 10 μl of a Penicillium italicum suspension containing 1×10^5 of spores/ml. After incubation for 3 hours at 20° C., each wound and the orange peel area of 1 cm around the wound was treated with in total 150 μl of a freshly prepared aqueous antifungal composition comprising either 500 ppm natamycin (DSM Food Specialties, Delft, The Netherlands), 500 ppm propineb or both. Each antifungal composition also comprised 3.2% (w/w) beeswax, 0.8% (w/w) glycerol, 0.7% (w/w) polyoxyethylene sorbitan monostearate (Tween 60), 0.2% (w/w) polyoxyethylene sorbitan monooleate (Tween 80), 0.05% (w/w) methylhydroxyethyl-cellulose (MHEC), 0.03% (w/w) anti-foaming agent, 0.02% (w/w) xanthan gum, 0.02% (w/w) citric acid, 0.01% (w/w) lactic acid and 0.01% potassium sorbate. A composition without natamycin or propineb was used as control.
(§2) The treated oranges were incubated in a closed box in the dark at 20° C. and assessed on mould growth during a 17-day incubation period. The antifungal activity (in %) of the individual and combined active ingredients was determined by calculating the reduction in mould growth observed on the oranges treated with the antifungal composition in comparison to the mould growth on the oranges treated with the control composition according to the Colby method (Colby, 1967) described in Example 5.
The experiment was conducted as described in Example 6, except for the fact that each wounded and inoculated orange was treated with 150 μl of a freshly prepared aqueous antifungal composition comprising either 500 ppm natamycin (DSM Food Specialties, Delft, The Netherlands), 600 ppm ferbam or both. During the 17-day incubation period, the treated oranges were assessed on mould growth according to the method described in Example 6.

For assay [2], the system named is Penicillium italicum. Briefly: Treatment of oranges inoculated with Penicillium italicum, natamycin/propineb (Example 6). Conditions: 20° C., 500 ppm propineb. As to the method:
as §1, §2

In assay [3] the test system is Botrytis cinerea. Nature of the assay: Treatment of strawberries inoculated with Botrytis cinerea (Example 5). The following applies: 500 ppm natamycin, 600 ppm propineb; for Number of moulded strawberries/total number of 12 strawberries / Observed antifungal activity O: 20° C., strawberries. As to the method:
Twelve fresh, organic strawberries were used per treatment. Each strawberry was wounded with a 0.5 mm long cut and each wound was inoculated with 10 μl of a Botrytis cinerea suspension containing 1×10^5 of spores/ml. After a 3-hour incubation period at 20° C., each strawberry was dipped individually for 1 minute in a freshly prepared aqueous antifungal composition comprising either 500 ppm natamycin (DSM Food Specialties, Delft, The Netherlands), 600 ppm propineb or both. Each antifungal composition also comprised 3.2% (w/w) beeswax, 0.8% (w/w) glycerol, 0.7% (w/w) polyoxyethylene sorbitan monostearate (Tween 60), 0.1% (w/w) polyoxyethylene sorbitan monooleate (Tween 80), 0.05% (w/w) methylhydroxyethyl-cellulose (MH EC), 0.03% (w/w) anti-foaming agent, 0.02% (w/w) xanthan gum, 0.02% (w/w) citric acid, 0.01% (w/w) lactic acid and 0.01% potassium sorbate. A composition without natamycin or propineb was used as control. […] The treated strawberries were incubated in a closed box in the dark at 20° C. for 9 days.
During incubation, mould growth on the strawberries was assessed in a twofold manner: (i) the number of moulded strawberries per total of 12 strawberries was counted; and (ii) the antifungal activity (in %) of the individual and combined active ingredients was determined by calculating the reduction in mould growth observed on the strawberries treated with the antifungal composition in comparison to the mould growth on the strawberries treated with the control composition. The expected antifungal activity (E in %) of the combined antifungal composition comprising both active ingredients was calculated according to the Colby equation (Colby, 1967): […]
wherein X and Y are the observed antifungal activities (in %) of the individual active ingredients X and Y, respectively.

Assay [4] deals with Botrytis cinerea. Briefly: Treatment of sweet peppers inoculated with Botrytis cinerea (Example 8). Conditions: 20° C., 200 ppm propineb. On the procedure: Ten fresh, organic sweet peppers were used per treatment. Each sweet pepper was soaked in a 180 ppm hypochlorite solution for 10 minutes, then rinsed thoroughly with fresh tap water and dried. The peel of each disinfected sweet pepper was wounded once using a cork borer according to the method described by de Lapeyre de Bellaire and Dubois (1987). Subsequently, each wound was inoculated with 10 μl of a Botrytis cinerea suspension containing 1×10^5 of spores/ml. After incubation for 3 hours at 20° C., each wound and the skin area of 0.5 cm around the wound was treated with in total 75 μl of a freshly prepared aqueous antifungal composition comprising either 200 ppm natamycin (DSM Food Specialties, Delft, The Netherlands), 200 ppm propineb or both. Each antifungal composition also comprised 3.2% (w/w) beeswax, 0.8% (w/w) glycerol, 0.7% (w/w) polyoxyethylene sorbitan monostearate (Tween 60), 0.2% (w/w) polyoxyethylene sorbitan monooleate (Tween 80), 0.05% (w/w) methylhydroxyethyl-cellulose (MHEC), 0.03% (w/w) anti-foaming agent, 0.02% (w/w) xanthan gum, 0.02% (w/w) citric acid, 0.01% (w/w) lactic acid and 0.01% potassium sorbate. A composition without natamycin or propineb was used as control.
The treated sweet peppers were incubated in a closed box in the dark at 20° C. and assessed on mould growth during a 27-day incubation period. The antifungal activity (in %) of the individual and combined active ingredients was determined by calculating the reduction in mould growth observed on the sweet peppers treated with the antifungal composition in comparison to the mould growth on the sweet peppers treated with the control composition according to the Colby method (Colby, 1967) described in Example 5.

Setting [5] is: incubation day 7, 500 ppm natamycin.
Where [6] appears, read: incubation day 8, 500 ppm natamycin.
[7] abbreviates: incubation day 9, 500 ppm natamycin.
Where [8] appears, read: incubation day 10, 500 ppm natamycin.
Where [9] appears, read: incubation day 11, 500 ppm natamycin.
The mark [10] stands for this setting: incubation day 12, 500 ppm natamycin.
Where [11] appears, read: incubation day 13, 500 ppm natamycin.
The mark [12] stands for this setting: incubation day 14, 500 ppm natamycin.
Setting [13] is: incubation day 15, 500 ppm natamycin.
The mark [14] stands for this setting: incubation day 17, 500 ppm natamycin.
The mark [15] stands for this setting: incubation day 11, 200 ppm natamycin.
Where [16] appears, read: incubation day 12, 200 ppm natamycin.
The mark [17] stands for this setting: incubation day 13, 200 ppm natamycin.
Where [18] appears, read: incubation day 15, 200 ppm natamycin.
[19] abbreviates: incubation day 18, 200 ppm natamycin.
[20] abbreviates: incubation day 24, 200 ppm natamycin.
Setting [21] is: incubation days 20-22, 200 ppm natamycin.
Setting [22] is: incubation days 25-27, 200 ppm natamycin.

Turning to `CN(C)C(=S)[S-].CN(C)C(=S)[S-].CN(C)C(=S)[S-].[Fe+3]` [Ferbam, ferbam], the “Observed antifungal activity O” value in assay [1] (setting [5]) is reported as 20%; in assay [1] (setting [6]) it was 24%; in assay [1] (setting [7]), 20%; in assay [1] (setting [8]) it was 7%; in assay [1] (setting [9]) it was 13%; in assay [1] (setting [10]) it was 6%. The “Observed antifungal activity O” value in assay [1] (setting [11]) is 6%; in assay [1] (setting [12]), 6%; in assay [1] (setting [13]), 6%; in assay [1] (setting [14]), 5%.

As to `C[C@@H]1C/C=C/C=C/C=C/C=C/[C@H](O[C@@H]2O[C@H](C)[C@@H](O)[C@H](N)[C@@H]2O)C[C@@H]2O[C@](O)(C[C@@H](O)C[C@H]3O[C@@H]3/C=C/C(=O)O1)C[C@H](O)[C@H]2C(=O)O` [Natamycin, natamycin], the “Observed antifungal activity O” value in assay [2] (setting [8]) came to 54%; in assay [2] (setting [9]), 41%; in assay [2] (setting [10]), 36%; in assay [2] (setting [11]), 38%; in assay [2] (setting [12]) it was 32%; in assay [2] (setting [13]), 24%. Also, the “Observed antifungal activity O” value in assay [2] (setting [14]) turned out to be 21%; in assay [3] (incubation day 4), 33%; in assay [3] (incubation day 5), 16%; in assay [3] (incubation day 6), 5.3%; in assay [3] (incubation day 7), 11%; in assay [3] (incubation day 8) it was 14%. The “Observed antifungal activity O” value in assay [3] (incubation day 9) was determined as 4.8%; in assay [4] (setting [15]), 84%; in assay [4] (setting [16]) it was 80%; in assay [4] (setting [17]) it was 79%; in assay [4] (setting [18]) it was 78%; in assay [4] (setting [19]), 75%. Also, the “Observed antifungal activity O” value in assay [4] (setting [20]) is 59%; in assay [4] (setting [21]) it was 71%; in assay [4] (setting [22]), 57%; in assay [1] (setting [5]) it was 89%; in assay [1] (setting [6]), 86%; in assay [1] (setting [7]), 64%. Besides, the “Observed antifungal activity O” value is reported as 54% in assay [1] (setting [8]); 41% in assay [1] (setting [9]); 36% in assay [1] (setting [10]); 38% in assay [1] (setting [11]); 32% in assay [1] (setting [12]); 24% in assay [1] (setting [13]). For the same molecule, in assay [1] (setting [14]), the “Observed antifungal activity O” value was 21%. Besides, the “Number of moulded strawberries/total number of 12 strawberries” value is on record as 11/12 in assay [3] (Day 5) and 12/12 in assay [3] (Day 6-9).

For propineb, the “Observed antifungal activity O” value in assay [2] (setting [8]), in assay [2] (setting [9]), in assay [2] (setting [10]), in assay [2] (setting [11]), in assay [2] (setting [12]) and in assay [2] (setting [13]) was 0% throughout. Further, the “Observed antifungal activity O” value in assay [2] (setting [14]), in assay [3] (incubation day 4), in assay [3] (incubation day 5), in assay [3] (incubation day 6), in assay [3] (incubation day 7) and in assay [3] (incubation day 8) was 0% throughout. Further, the “Observed antifungal activity O” value in assay [3] (incubation day 9), in assay [4] (setting [15]), in assay [4] (setting [16]), in assay [4] (setting [17]), in assay [4] (setting [18]) and in assay [4] (setting [19]) was 0% each time. The “Observed antifungal activity O” value in assay [4] (setting [20]), in assay [4] (setting [21]) and in assay [4] (setting [22]) was 0% throughout. Further, the “Number of the 12 strawberries that showed mould growth” value in assay [3] (after 5 through 9 days of incubation) came out at 12. Further, the “Number of moulded strawberries/total number of 12 strawberries” value in assay [3] (Day 5) and in assay [3] (Day 6-9) was 12/12 in each case.

The values are drawn from patent US20150119349A1, “NEW ANTIFUNGAL COMPOSITIONS” (DSM IP ASSETS B.V., priority 2012, published 2015).
